Laboratory results from patent publication US11161837B2, “Benzofuran derivatives for the treatment of hepatitis C” (BRISTOL-MYERS SQUIBB COMPANY, priority 2016, dated 2021).

Tests used:
[1] = biological target: T1, NS5B proteins of HCV genotype 1b (Con1) (Hepatitis C virus genotype 1b, UniProt Q9WMX2); test: HCV NS5B RdRp enzyme assay; type: biochemical; details: 1b enzyme
T1 construct: Each untagged protein was expressed with an 18 amino acid C-terminal truncation to enhance the solubility; made in house; host or cells: E. coli BL21(DE3), pET21a
T1 sequence (Q9WMX2 2420-2992): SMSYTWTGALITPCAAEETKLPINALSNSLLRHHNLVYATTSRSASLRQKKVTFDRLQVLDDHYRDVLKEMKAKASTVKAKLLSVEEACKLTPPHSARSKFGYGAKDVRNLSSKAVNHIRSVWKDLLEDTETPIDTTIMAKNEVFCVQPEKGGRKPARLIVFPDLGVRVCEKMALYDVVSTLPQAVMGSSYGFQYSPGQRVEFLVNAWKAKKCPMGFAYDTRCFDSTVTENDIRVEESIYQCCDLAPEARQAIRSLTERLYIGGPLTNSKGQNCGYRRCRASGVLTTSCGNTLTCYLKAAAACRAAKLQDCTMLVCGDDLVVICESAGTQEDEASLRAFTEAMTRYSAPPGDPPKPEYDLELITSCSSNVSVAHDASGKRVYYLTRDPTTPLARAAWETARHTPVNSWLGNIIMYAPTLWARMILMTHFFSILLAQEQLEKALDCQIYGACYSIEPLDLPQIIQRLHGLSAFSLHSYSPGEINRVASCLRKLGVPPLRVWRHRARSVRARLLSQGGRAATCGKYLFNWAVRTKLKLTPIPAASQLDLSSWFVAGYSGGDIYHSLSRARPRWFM
Description: HCVNS5B RdRp Cloning, Expression, and Purification.
The cDNA encoding NS5B proteins of HCV genotype 1b (Con1), a genotype 1b variant with amino acid 316 mutated from cysteine to asparagine, and genotype 2a (JFH-1), were cloned into the pET21a expression vector. Each untagged protein was expressed with an 18 amino acid C-terminal truncation to enhance the solubility. The E. coli competent cell line BL21(DE3) was used for expression of the protein. Cultures were grown at 37° C. for ˜4 hours until the cultures reached an optical density of 2.0 at 600 nm. The cultures were cooled to 20° C. and induced with 1 mM IPTG. Fresh ampicillin was added to a final concentration of 50 μg/mL and the cells were grown overnight at 20° C.
Cell pellets (3 L) were lysed for purification to yield 15-24 mgs of purified NS5B. The lysis buffer consisted of 20 mM Tris-HCl, pH 7.4, 500 mM NaCl, 0.5% triton X-100, 1 mM DTT, 1 mM EDTA, 20% glycerol, 0.5 mg/mL lysozyme, 10 mM MgCl2, 15 ug/mL deoxyribonuclease I, and Complete TM protease inhibitor tablets (Roche). After addition of the lysis buffer, frozen cell pellets were resuspended using a tissue homogenizer. To reduce the viscosity of the sample, aliquots of the lysate were sonicated on ice using a microtip attached to a Branson sonicator. The sonicated lysate was centrifuged at 100,000×g for 30 minutes at 4° C. and filtered through a 0.2 μm filter unit (Corning).
The protein was purified using two sequential chromatography steps: Heparin sepharose CL-6B and polyU sepharose 4B. The chromatography buffers were identical to the lysis buffer but contained no lysozyme, deoxyribonuclease I, MgCl2 or protease inhibitor and the NaCl concentration of the buffer was adjusted according to the requirements for charging the protein onto the column. Each column was eluted with a NaCl gradient which varied in length from 5-50 column volumes depending on the column type. After the final chromatography step, the resulting purity of the enzyme is >90% based on SDS-PAGE analysis. The enzyme was aliquoted and stored at −80° C.
HCVNS5B RdRp Enzyme Assay.
An on-bead solid phase homogeneous assay was used in a 384-well format to assess NS5B inhibitors (WangY-K, Rigat K, Roberts S, and Gao M (2006) Anal Biochem, 359: 106-111). The biotinylated oligo dT12 primer was captured on streptavidin-coupled imaging beads (GE, RPNQ0261) by mixing primer and beads in 1× buffer and incubating at room temperature for three hours. Unbound primer was removed after centrifugation. The primer-bound beads were resuspended in 3× reaction mix (20 mM Hepes buffer, pH 7.5, dT primer coupled beads, poly A template, ^3H-UTP, and RNAse inhibitor (Promega N2515)). Compounds were serially diluted 1:3 in DMSO and aliquoted into assay plates. Equal volumes (10 μL) of water, 3× reaction mix, and enzyme in 3× assay buffer (60 mM Hepes buffer, pH 7.5, 7.5 mM MgCl2, 7.5 mM KCl, 3 mM DTT, 0.03 mg/mL BSA, 6% glycerol) were added to the diluted compound on the assay plate. Final concentration of components in 384-well assay: 0.36 nM template, 15 nM primer, 0.29 μM ^3H-UTP (0.3 μCi), 1.6 U/μL RNAse inhibitor, 7 nM NS5B enzyme, 0.01 mg/mL BSA, 1 mM DTT, and 0.33 μg/μL beads, 20 mM Hepes buffer, pH 7.5, 2.5 mM MgCl2, 2.5 mM KCl, and 0.1% DMSO.
Reactions were allowed to proceed from 4 to 24 hours at 30° C. For 24 hour reactions, enzyme and inhibitors were pre-incubated for 24 hours before adding template and primer. Reactions were terminated by the addition of 50 mM EDTA (10 μL). After incubating for at least 15 minutes, plates were read on an Amersham LEADseeker multimodality imaging system.
IC50 values for compounds were determined using ten different [I]. IC50 values were calculated from the inhibition using the four-parameter logistic formula y=A+((B−A)/(1+((C/x)^D))), where A and B denote minimal and maximal % inhibition, respectively, C is the IC50, D is hill slope and x represents compound concentration.

[2] = test system: genotype 1b (Con-1) HCV replicon in Huh-7 cells; test: HCV replicon luciferase assay; type: cell-based; details: 1b replicon, Huh-7, Renilla luciferase, 3 days incubation
Description: The cell lines used to evaluate compounds consist of a human hepatocyte derived cell line (Huh-7) that constitutively expresses a genotype 1b (Con-1) HCV replicon or a genotype 1b (Con-1) HCV replicon with an asparagine replacing the cysteine at amino acid 316, or a genotype 2a (JFH-1) replicon, containing a Renilla luciferase reporter gene. These cells were maintained in Dulbecco's modified Eagle medium (DMEM) containing 10% FBS, 100 U/mL penicillin/streptomycin and 1.0 mg/mL G418.
HCV Replicon Luciferase Assay.
To evaluate compound efficacy, titrated compounds were transferred to sterile 384-well tissue culture treated plates, and the plates were seeded with HCV replicon cells (50 μL at a density of 2.4×10^3 cells/well) in DMEM containing 4% FBS (final DMSO concentration at 0.5%). After 3 days incubation at 37° C., cells were analyzed for Renilla Luciferase activity using the EnduRen substrate (Promega cat # E6485) according to the manufacturer's directions. Briefly, the EnduRen substrate was diluted in DMEM and then added to the plates to a final concentration of 7.5 μM. The plates were incubated for at least 1 h at 37° C. then read on a Viewlux Imager (PerkinElmer) using a luminescence program. The 50% effective concentration (EC50) was calculated using the four-parameter logistic formula noted above.

SMILES | IC50 [1] | EC50 [2] | EC50 ([2]; Hepatitis C virus, Huh-7, 72 h)
CNC(=O)c1c(-c2ccc(F)cc2)oc2ccc(-c3cc(C(=O)NC4(c5ncccn5)CC(OC)C4)c(OC)cc3C)c(F)c12 (single isomer, unassigned) [Example 13b, 4-Fluoro-2-(4-fluorophenyl)-5-(4-methoxy-5-((3-methoxy-1-(pyrimidin-2-yl)cyclobutyl)carbamoyl)-2-methylphenyl)-N-methylbenzofuran-3-carboxamide] | 20 nM | 6.44 nM | 
CNC(=O)c1c(-c2ccc(F)cc2)oc2cc(CCC(F)(F)F)c(-c3cccc(C(=O)NC4(c5ncccn5)CC(OC(F)F)C4)c3)cc12 (single isomer, unassigned) [Example 29a] | 6.14 nM | 4.07 nM | 
CNC(=O)c1c(-c2ccc(F)cc2)oc2cc(CCC(F)(F)F)c(-c3cccc(C(=O)NC4(c5ncccn5)CC(OC(F)(F)F)C4)c3)cc12 (single isomer, unassigned) [Example 45a, 2-(4-Fluorophenyl)-N-methyl-5-(3-((1-(pyrimidin-2-yl)-3-(trifluoromethoxy)cyclobutyl)carbamoyl)phenyl)-6-(3,3,3-trifluoropropyl)benzofuran-3-carboxamide] | 20 nM | 20 nM | 
CNC(=O)c1c(-c2ccc(F)cc2)oc2cc(CCC(F)(F)F)c(-c3cccc(C(=O)NC4(c5ncccn5)CC(OC(F)(F)F)C4)c3)cc12 (single isomer, unassigned) [Example 45b, 2-(4-Fluorophenyl)-N-methyl-5-(3-((1-(pyrimidin-2-yl)-3-(trifluoromethoxy)cyclobutyl)carbamoyl)phenyl)-6-(3,3,3-trifluoropropyl)benzofuran-3-carboxamide] | 10 nM | 9.46 nM | 
CNC(=O)c1c(-c2ccc(F)cc2)oc2cc(CCC(F)(F)F)c(-c3ccc(OC)c(C(=O)NC4(c5ncccn5)CC(OC(F)(F)F)C4)c3)cc12 (single isomer, unassigned) [Example 47a, 2-(4-Fluorophenyl)-5-(4-methoxy-3-((1-(pyrimidin-2-yl)-3-(trifluoromethoxy)cyclobutyl)carbamoyl)phenyl)-N-methyl-6-(3,3,3-trifluoropropyl)benzofuran-3-carboxamide] | 20 nM |  | 10 nM
CNC(=O)c1c(-c2ccc(F)cc2)oc2cc(CCC(F)(F)F)c(-c3ccc(OC)c(C(=O)NC4(c5ncccn5)CC(OC(F)(F)F)C4)c3)cc12 (single isomer, unassigned) [Example 47b, 2-(4-Fluorophenyl)-5-(4-methoxy-3-((1-(pyrimidin-2-yl)-3-(trifluoromethoxy)cyclobutyl)carbamoyl)phenyl)-N-methyl-6-(3,3,3-trifluoropropyl)benzofuran-3-carboxamide] | 10 nM | 10 nM | 
CCCc1cc2oc(-c3ccc(F)cc3)c(C(=O)NC)c2cc1-c1ccc(F)c(C(=O)NC2(c3ncccn3)CC(OC(F)(F)F)C2)c1 (single isomer, unassigned) [Example 48b, 5-(4-Fluoro-3-((1-(pyrimidin-2-yl)-3-(trifluoromethoxy)cyclobutyl)carbamoyl)phenyl)-2-(4-fluorophenyl)-N-methyl-6-propylbenzofuran-3-carboxamide] | 8.27 nM | 10 nM | 
CNC(=O)c1c(-c2ccc(F)cc2)oc2cc(CCC(F)(F)F)c(-c3ccc(F)c(C(=O)NC4(c5ncccn5)CC(OC(F)(F)F)C4)c3)cc12 (single isomer, unassigned) [Example 49b, 5-(4-Fluoro-3-((1-(pyrimidin-2-yl)-3-(trifluoromethoxy)cyclobutyl)carbamoyl)phenyl)-2-(4-fluorophenyl)-N-methyl-6-(3,3,3-trifluoropropyl)benzofuran-3-carboxamide] | 10 nM | 20 nM | 
CCCc1cc2oc(-c3ccc(F)cc3)c(C(=O)NC)c2cc1-c1ccc(OC)c(C(=O)NC2(c3ncccn3)CC(OC(F)(F)F)C2)c1 (single isomer, unassigned) [Example 51a, 2-(4-Fluorophenyl)-5-(4-methoxy-3-((1-(pyrimidin-2-yl)-3-(trifluoromethoxy)cyclobutyl)carbamoyl)phenyl)-N-methyl-6-propylbenzofuran-3-carboxamide] | 50 nM |  | 20 nM
